IC50 data for six compounds are collected here from patent publication EP0438311A2, “Di- and tripeptide renin inhibitors” (MERCK & CO. INC., priority 1990, dated 1991).

In this experiment the target is T1, human plasma renin (Homo sapiens, UniProt P00797).
T1 construct: from tissue; host or cells: human plasma
T1 sequence (P00797 67-406): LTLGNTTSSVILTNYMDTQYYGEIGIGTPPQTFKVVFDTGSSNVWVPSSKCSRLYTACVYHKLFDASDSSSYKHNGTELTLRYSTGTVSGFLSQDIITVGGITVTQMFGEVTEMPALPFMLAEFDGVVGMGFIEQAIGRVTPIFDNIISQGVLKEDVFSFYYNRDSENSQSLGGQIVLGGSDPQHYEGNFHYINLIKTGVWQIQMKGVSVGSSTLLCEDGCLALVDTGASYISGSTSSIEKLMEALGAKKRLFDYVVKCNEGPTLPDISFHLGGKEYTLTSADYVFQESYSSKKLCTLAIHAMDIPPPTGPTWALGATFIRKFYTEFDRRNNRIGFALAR
In words: Inhibition of human plasma renin, in vitro method of Boger et al. The settings on record: J. Med. Chem. (1985) 28, 1779, read-out: IC₅₀. In kind it is biochemical. The protocol:
Inhibition of human plasma renin was assayed using the in vitro method described by Boger, et. al., J. Med. Chem. (1985) 28, 1779. IC₅₀-1.3 nM.

Regarding `C=CC[C@H]1COC[C@@H]2C[C@@H]([C@H](O)[C@H](CC3CCCCC3)NC(=O)[C@H](Cc3c[nH]cn3)NC(=O)[C@H](Cc3ccccc3)NC(=O)OC(C)(C)C)C(=O)N21` [Example 3A, Boc-Phe-His-(ACHP)-5(S)-Allyl-7-Oxa-9(S)-Indolizidin-3-One-2(S)-yl], the IC50 amounted to 1.3 nM.
Regarding `C=C(C)C[C@H]1COC[C@@H]2C[C@@H]([C@H](O)[C@H](CC3CCCCC3)NC(=O)[C@H](Cc3cnc[nH]3)NC(=O)[C@H](Cc3ccccc3)NC(=O)OC(C)(C)C)C(=O)N12` [Example 3B, Boc-Phe-His-(ACHP)-5(S)-(2-Methallyl)-7-Oxa-9(S)-Indolizidin-3-One-2(S)-yl], the IC50 is 0.97 nM.
As for `CC(C)C[C@H]1COC[C@@H]2C[C@@H]([C@H](O)[C@H](CC3CCCCC3)NC(=O)[C@H](Cc3cnc[nH]3)NC(=O)[C@H](Cc3ccccc3)NC(=O)OC(C)(C)C)C(=O)N12` [Example 3C, Boc-Phe-His-(ACHP)-5(S)-(2-Methylpropyl)-7-Oxa-9(S)-Indolizidin-3-One-2(S)-yl], the IC50 is 2 nM.
The figure for `CC(C)(C)OC(=O)N[C@@H](Cc1ccccc1)C(=O)N[C@@H](Cc1cnc[nH]1)C(=O)N[C@@H](CC1CCCCC1)[C@@H](O)[C@@H]1C[C@H]2COC[C@H](C3CCCC3)N2C1=O` [Example 3D, Boc-Phe-His-(ACHP)-5(S)-Cyclopentyl-7-Oxa-9(S)-Indolizidin-3-One-2(S)-yl] is 1 nM; for `CCC[C@H]1COC[C@@H]2C[C@@H]([C@H](O)[C@H](CC3CCCCC3)NC(=O)[C@H](Cc3cnc[nH]3)NC(=O)[C@H](Cc3ccccc3)NC(=O)OC(C)(C)C)C(=O)N21` [Example 3E, Boc-Phe-His-(ACHP)-5(S)-Propyl-7-Oxa-9(S)-Indolizidin-3-One-2(S)-yl] it is 1 nM; for “Boc-Phe-His-(ACHP)-6(S)-Methyl-9(S)-Indolizidin-3-One-2(S)-yl [Example 3XX]” it is 6.8 nM.
